Measurements from ChEMBL document CHEMBL1148972, “Isomalabaricane-type compounds from the marine sponge Rhabdastrella aff. distincta” (J Nat Prod, 2004).
Values after ≈ are worked out from the molar mass of the structure shown.

Assays:
Assay type in all cases: functional, cell-based
[1] = Cytotoxicity against human […] cells after 48 hrs by MTT assay
BGC-823 = assay: Cytotoxicity against human BGC823 cells after 48 hrs by MTT assay; conditions: BGC-823, 48 h
Bel-7402 = assay: Cytotoxicity against human Bel7402 cells after 48 hrs by MTT assay; conditions: Bel-7402, 48 h
[2] = Cytotoxicity against human PC-3MIE8 cells after 48 hrs by MTT assay; conditions: PC-3MIE8, 48 h
HeLa = assay: Cytotoxicity against human HeLa cells after 48 hrs by MTT assay
HL-60 = assay: Cytotoxicity against human HL60 cells after 48 hrs by MTT assay; conditions: HL-60, 48 h

Row | SMILES | IC50 [1] [µg/mL] | IC50 (BGC-823) [µg/mL] | IC50 (Bel-7402) [µg/mL] | IC50 [2] [µg/mL] | IC50 (HeLa) [µg/mL] | IC50 (HL-60) [µg/mL]
1 | CC(=O)/C=C\C(=O)/C(C)=C/C=C/C(C)=C1/C(=O)C[C@H]2[C@@]3(C)CCC(=O)C(C)(C)[C@@H]3CC[C@]12C | > 5 | > 5 | > 5 | > 5 | > 5 | > 5
2 | CC1=CC[C@@H](/C(C)=C/C=C/C(C)=C2\C(=O)C[C@H]3[C@@]4(C)CCC(=O)C(C)(C)[C@@H]4CC[C@]23C)OC1=O [22,23-DIHYDROSTELLETTIN B] | > 5 | > 5 | > 5 | > 5 | > 5 | > 5
3 | COc1cc2c(c(OC)c1OC)-c1ccc(OC)c(=O)cc1[C@@H](NC(C)=O)CC2 [COLCHICINE] | 0.2 (≈ 0.501 µM) | 0.6 (≈ 1.5 µM) | 0.3 (≈ 0.751 µM) | 0.7 (≈ 1.75 µM) | 0.1 (≈ 0.25 µM) | 1.6 (≈ 4.01 µM)
4 | CC(=O)/C=C/C(=O)/C(C)=C/C=C/C(C)=C1\C(=O)C[C@H]2[C@@]3(C)CCC(=O)C(C)(C)[C@@H]3CC[C@]12C [GEODITIN A] | > 5 | > 5 | > 5 | > 5 | > 5 | > 5
5 | CC(=O)/C=C/C(=O)/C(C)=C/C=C/C(C)=C1\C(=O)C[C@H]2[C@@]3(C)CC[C@H](OC(C)=O)C(C)(C)[C@@H]3CC[C@]12C [GEODITIN B] | > 5 | > 5 | > 5 | > 5 | > 5 | > 5
6 | CC(=O)/C=C\C(=O)/C(C)=C/C=C/C(C)=C1\C(=O)C[C@H]2[C@@]3(C)CCC(=O)C(C)(C)[C@@H]3CC[C@]12C [ISOGEODITIN A] | 1.2 (≈ 2.66 µM) | 0.47 (≈ 1.04 µM) | 3.7 (≈ 8.21 µM) | 0.07 (≈ 0.155 µM) | 0.35 (≈ 0.777 µM) | 0.13 (≈ 0.288 µM)
7 | CC(=O)/C=C\C(=O)/C(C)=C/C=C/C(C)=C1\C(=O)C[C@H]2[C@@]3(C)CC[C@H](OC(C)=O)C(C)(C)[C@@H]3CC[C@]12C [ISOGEODITIN B] | 2.2 (≈ 4.45 µM) | 2.2 (≈ 4.45 µM) | 3.9 (≈ 7.88 µM) | 3.4 (≈ 6.87 µM) | 3 (≈ 6.06 µM) | 0.5 (≈ 1.01 µM)
8 | COC(=O)/C(C)=C/C=C/C(C)=C/C=C/C(C)=C1/C(=O)C[C@H]2[C@@]3(C)CCC(=O)C(C)(C)[C@@H]3CC[C@]12C [RHABDASTRELLIC ACID A METHYL ESTER] | > 5 | > 5 | > 5 | > 5 | > 5 | > 5
9 | CC(/C=C/C=C(\C)C(=O)O)=C\C=C\C(C)=C1\C(=O)C[C@H]2[C@@]3(C)CCC(=O)C(C)(C)[C@@H]3CC[C@]12C [RHABDASTRELLIC ACID A] | > 5 | > 5 | > 5 | > 5 | > 5 | > 5
10 | C\C(=C/C=C/C(C)=C1/C(=O)C[C@H]2[C@@]3(C)CCC(=O)C(C)(C)[C@@H]3CC[C@]12C)c1ccc(C)c(=O)o1 [STELLETIN A] | > 5 | > 5 | > 5 | > 5 | > 5 | > 5
11 | CC(/C=C/C=C(C)/C=C/C=C(\C)C(=O)O)=C1/C(=O)C[C@H]2[C@@]3(C)CCC(=O)C(C)(C)[C@@H]3CC[C@]12C [STELLETIN E] | > 5 | > 5 | > 5 | > 5 | > 5 | > 5
12 | CC(/C=C/C=C(\C)c1ccc(C)c(=O)o1)=C1/C(=O)C[C@H]2[C@@]3(C)CCC(=O)C(C)(C)[C@@H]3CC[C@]12C [STELLETTIN B] | > 5 | > 5 | > 5 | > 5 | > 5 | 0.2 (≈ 0.432 µM)
13 | CC(=O)O[C@H]1CC[C@@]2(C)[C@@H](CC[C@]3(C)\C(=C(C)/C=C/C=C(\C)c4ccc(C)c(=O)o4)C(=O)C[C@@H]23)C1(C)C [STELLETTIN C] | > 5 | > 5 | > 5 | 3.1 (≈ 6.12 µM) | > 5 | > 5
14 | COC(=O)/C(C)=C/C=C/C(C)=C/C=C/C(C)=C1\C(=O)C[C@H]2[C@@]3(C)CCC(=O)C(C)(C)[C@@H]3CC[C@]12C [STELLETTIN E METHYL ESTER] | > 5 | > 5 | > 5 | > 5 | > 5 | 4.2 (≈ 8.77 µM)
